Measured values from ChEMBL document CHEMBL4699479, “Structure-aided optimization of 3-O-β-chacotriosyl epiursolic acid derivatives as novel H5N1 virus entry inhibitors” (Bioorg Med Chem Lett, 2020).
The source made the active and inactive calls. The calls are words filed in the database; no cut-off is given here.

Legend:
Influenza A virus [1] = assay type: functional, organism-based; conditions: A/Duck/Guangdong/212/2004(H5N1), A549
[2] = Cytotoxicity against human A549 cells assessed as reduction in cell viability by MTT assay; assay type: cell-based
in vitro = conditions: human, A549 cells
Erythrocyte = assay: Inhibition of Hemagglutinin in Influenza A virus (H5N1) assessed as reduction in virus-induced agglutination of chicken erythrocytes by hemagglutination assay; assay type: cell-based; conditions: dose microM 5-160
H5N1 subtype = assay: Antiviral activity against Influenza A virus (A/Thailand/Kan353/2004(H5N1)) infected in MDCK cells assessed as inhibition of viral entry; assay type: functional, organism-based
[3] = system: Vesicular stomatitis virus; assay: Antiviral activity against VSV-G enveloped pseudovirus infected in MDCK cells assessed as inhibition of viral entry at 1 to 100 uM; assay type: functional, organism-based; conditions: dose microM 1-100
[4] = system: Influenza A virus (A/Thailand/Kan353/2004(H5N1)); assay: Inhibition of Influenza A virus (A/Thailand/Kan353/2004(H5N1)) neuraminidase N1 at 5 to 20 microM by fluorescence method; conditions: dose microM 5-20
[5] = (§1) Binding affinity to Influenza A virus (A/Viet Nam/1203/2004(H5N1)) hemagglutin by surface plasmon resonance assay
[6] = system: Influenza A virus (A/Viet Nam/1203/2004(H5N1)); assay: as §1
Influenza A virus [7] = assay type: functional, organism-based; conditions: A/Duck/Guangdong/212/2004(H5N1), dose mg/kg 40-160, time 5.0 day
MDCK [8] = assay: Cytotoxicity against dog MDCK cells assessed as reduction in cell viability at 0.78125 to 200 uM; assay type: cell-based, Canis lupus familiaris; conditions: dose 0.78125-200 µM
Influenza A virus [9] = assay type: functional, organism-based; conditions: A/Duck/Guangdong/212/2004(H5N1), A549, dose 25.0 µM
MDCK [10] = assay: (§2) Cytotoxicity against dog MDCK cells assessed as reduction in cell viability; assay type: cell-based, Canis lupus familiaris; conditions: mdck
[11] = as §2; assay type: cell-based, Canis lupus familiaris; conditions: MDCK cells
Influenza A virus [12] = assay type: functional, organism-based; conditions: A/Duck/Guangdong/212/2004(H5N1), dose 80.0 mg/kg, time 5.0 day

Structure (SMILES)	IC50 (Influenza A virus [1]) [µM]	CC50 [2] [µM]	selectivity ratio (in vitro)	other results
C[C@H]1[C@H](C)CC[C@]2(C(=O)OC3CCCC3)CC[C@]3(C)C(=CC[C@@H]4[C@@]5(C)CC[C@@H](O[C@@H]6O[C@H](CO)[C@@H](O[C@@H]7O[C@@H](C)[C@H](O)[C@@H](O)[C@H]7O)[C@H](O)[C@H]6O[C@@H]6O[C@@H](C)[C@H](O)[C@@H](O)[C@H]6O)C(C)(C)[C@@H]5CC[C@]43C)[C@H]12	40.5	524	12.9	
C[C@H]1[C@H](C)CC[C@]2(C(=O)N(C)C)CC[C@]3(C)C(=CC[C@@H]4[C@@]5(C)CC[C@@H](O[C@@H]6O[C@H](CO)[C@@H](O[C@@H]7O[C@@H](C)[C@H](O)[C@@H](O)[C@H]7O)[C@H](O)[C@H]6O[C@@H]6O[C@@H](C)[C@H](O)[C@@H](O)[C@H]6O)C(C)(C)[C@@H]5CC[C@]43C)[C@H]12	8.42	> 1000	> 119	inhibition (Erythrocyte): Dose-dependent effect; IC50 (H5N1 subtype): 6.29 µM; Activity [3]: inactive; inhibition [4]: inactive; Kd [5]: 0.00164 µM; Activity [6]: Dose-dependent effect; Activity (Influenza A virus [7]): Dose-dependent effect; Activity (MDCK [8]): Non-Toxic; Activity (Influenza A virus [9]): Active
C[C@H]1[C@H](C)CC[C@]2(C(=O)O)CC[C@]3(C)C(=CC[C@@H]4[C@@]5(C)CC[C@@H](O[C@@H]6O[C@H](CO)[C@@H](O[C@@H]7O[C@@H](C)[C@H](O)[C@@H](O)[C@H]7O)[C@H](O)[C@H]6O[C@@H]6O[C@@H](C)[C@H](O)[C@@H](O)[C@H]6O)C(C)(C)[C@@H]5CC[C@]43C)[C@H]12	48.7	283	5.8	
C[C@H]1[C@H](C)CC[C@]2(C(=O)OCc3ccccc3)CC[C@]3(C)C(=CC[C@@H]4[C@@]5(C)CC[C@@H](O[C@@H]6O[C@H](CO)[C@@H](O[C@@H]7O[C@@H](C)[C@H](O)[C@@H](O)[C@H]7O)[C@H](O)[C@H]6O[C@@H]6O[C@@H](C)[C@H](O)[C@@H](O)[C@H]6O)C(C)(C)[C@@H]5CC[C@]43C)[C@H]12	> 50			
C[C@H]1[C@H](C)CC[C@]2(C(=O)NC3CCCC3)CC[C@]3(C)C(=CC[C@@H]4[C@@]5(C)CC[C@@H](O[C@@H]6O[C@H](CO)[C@@H](O[C@@H]7O[C@@H](C)[C@H](O)[C@@H](O)[C@H]7O)[C@H](O)[C@H]6O[C@@H]6O[C@@H](C)[C@H](O)[C@@H](O)[C@H]6O)C(C)(C)[C@@H]5CC[C@]43C)[C@H]12	18.5	> 1000	> 54.1	
C[C@H]1[C@H](C)CC[C@]2(C(=O)Nc3ccccc3)CC[C@]3(C)C(=CC[C@@H]4[C@@]5(C)CC[C@@H](O[C@@H]6O[C@H](CO)[C@@H](O[C@@H]7O[C@@H](C)[C@H](O)[C@@H](O)[C@H]7O)[C@H](O)[C@H]6O[C@@H]6O[C@@H](C)[C@H](O)[C@@H](O)[C@H]6O)C(C)(C)[C@@H]5CC[C@]43C)[C@H]12	33.8	> 1000	> 29.6	
COC(=O)[C@]12CC[C@@H](C)[C@H](C)[C@H]1C1=CC[C@@H]3[C@@]4(C)CC[C@@H](O[C@@H]5O[C@H](CO)[C@@H](O[C@@H]6O[C@@H](C)[C@H](O)[C@@H](O)[C@H]6O)[C@H](O)[C@H]5O[C@@H]5O[C@@H](C)[C@H](O)[C@@H](O)[C@H]5O)C(C)(C)[C@@H]4CC[C@@]3(C)[C@]1(C)CC2	16.4	363	22.1	Activity (MDCK [10]): Non-Toxic
C[C@H]1[C@H](C)CC[C@]2(C(=O)NCc3ccccc3)CC[C@]3(C)C(=CC[C@@H]4[C@@]5(C)CC[C@@H](O[C@@H]6O[C@H](CO)[C@@H](O[C@@H]7O[C@@H](C)[C@H](O)[C@@H](O)[C@H]7O)[C@H](O)[C@H]6O[C@@H]6O[C@@H](C)[C@H](O)[C@@H](O)[C@H]6O)C(C)(C)[C@@H]5CC[C@]43C)[C@H]12	> 50			
CNC(=O)[C@]12CC[C@@H](C)[C@H](C)[C@H]1C1=CC[C@@H]3[C@@]4(C)CC[C@@H](O[C@@H]5O[C@H](CO)[C@@H](O[C@@H]6O[C@@H](C)[C@H](O)[C@@H](O)[C@H]6O)[C@H](O)[C@H]5O[C@@H]5O[C@@H](C)[C@H](O)[C@@H](O)[C@H]5O)C(C)(C)[C@@H]4CC[C@@]3(C)[C@]1(C)CC2	12.2	> 1000	> 81.7	
C[C@H]1[C@H](C)CC[C@]2(C(=O)N(C)C)CC[C@]3(C)C(=CC[C@@H]4[C@@]5(C)CC[C@H](O[C@@H]6O[C@H](CO)[C@@H](O[C@@H]7O[C@@H](C)[C@H](O)[C@@H](O)[C@H]7O)[C@H](O)[C@H]6O[C@@H]6O[C@@H](C)[C@H](O)[C@@H](O)[C@H]6O)C(C)(C)[C@@H]5CC[C@]43C)[C@H]12				CC50 [11]: 47 µM
CCOC(=O)[C@]12CC[C@@H](C)[C@H](C)[C@H]1C1=CC[C@@H]3[C@@]4(C)CC[C@@H](O[C@@H]5O[C@H](CO)[C@@H](O[C@@H]6O[C@@H](C)[C@H](O)[C@@H](O)[C@H]6O)[C@H](O)[C@H]5O[C@@H]5O[C@@H](C)[C@H](O)[C@@H](O)[C@H]5O)C(C)(C)[C@@H]4CC[C@@]3(C)[C@]1(C)CC2	18.1	375	20.7	
NC(=O)c1ncn([C@@H]2O[C@H](CO)[C@@H](O)[C@H]2O)n1 [RIBAVIRIN]	47.2	130	2.7	Activity (Influenza A virus [12]): Active
CCCCCOC(=O)[C@]12CC[C@@H](C)[C@H](C)[C@H]1C1=CC[C@@H]3[C@@]4(C)CC[C@@H](O[C@@H]5O[C@H](CO)[C@@H](O[C@@H]6O[C@@H](C)[C@H](O)[C@@H](O)[C@H]6O)[C@H](O)[C@H]5O[C@@H]5O[C@@H](C)[C@H](O)[C@@H](O)[C@H]5O)C(C)(C)[C@@H]4CC[C@@]3(C)[C@]1(C)CC2	29.3	489	16.7	
